pIC50: −log10 of the molar value.
Legend:
EAE = assay: Rat EAE model induced with myelin basic protein peptide; type: in vivo; conditions: daily 30 mg/kg s.c.
α2β1 = target: T1, α2β1 (Homo sapiens, UniProt P05556+P17301); assay: α2β1/collagen I cell adhesion assay (K562 transfected with human α2 integrin chain); type: cell-based; conditions: adhesion format, 1 mM MnCl2
T1 construct: expressed in transfected cells; host or cells: K562 cells transfected with human α2 integrin chain (gift from M. Hemler)
T1 sequence (P17301 30-1181): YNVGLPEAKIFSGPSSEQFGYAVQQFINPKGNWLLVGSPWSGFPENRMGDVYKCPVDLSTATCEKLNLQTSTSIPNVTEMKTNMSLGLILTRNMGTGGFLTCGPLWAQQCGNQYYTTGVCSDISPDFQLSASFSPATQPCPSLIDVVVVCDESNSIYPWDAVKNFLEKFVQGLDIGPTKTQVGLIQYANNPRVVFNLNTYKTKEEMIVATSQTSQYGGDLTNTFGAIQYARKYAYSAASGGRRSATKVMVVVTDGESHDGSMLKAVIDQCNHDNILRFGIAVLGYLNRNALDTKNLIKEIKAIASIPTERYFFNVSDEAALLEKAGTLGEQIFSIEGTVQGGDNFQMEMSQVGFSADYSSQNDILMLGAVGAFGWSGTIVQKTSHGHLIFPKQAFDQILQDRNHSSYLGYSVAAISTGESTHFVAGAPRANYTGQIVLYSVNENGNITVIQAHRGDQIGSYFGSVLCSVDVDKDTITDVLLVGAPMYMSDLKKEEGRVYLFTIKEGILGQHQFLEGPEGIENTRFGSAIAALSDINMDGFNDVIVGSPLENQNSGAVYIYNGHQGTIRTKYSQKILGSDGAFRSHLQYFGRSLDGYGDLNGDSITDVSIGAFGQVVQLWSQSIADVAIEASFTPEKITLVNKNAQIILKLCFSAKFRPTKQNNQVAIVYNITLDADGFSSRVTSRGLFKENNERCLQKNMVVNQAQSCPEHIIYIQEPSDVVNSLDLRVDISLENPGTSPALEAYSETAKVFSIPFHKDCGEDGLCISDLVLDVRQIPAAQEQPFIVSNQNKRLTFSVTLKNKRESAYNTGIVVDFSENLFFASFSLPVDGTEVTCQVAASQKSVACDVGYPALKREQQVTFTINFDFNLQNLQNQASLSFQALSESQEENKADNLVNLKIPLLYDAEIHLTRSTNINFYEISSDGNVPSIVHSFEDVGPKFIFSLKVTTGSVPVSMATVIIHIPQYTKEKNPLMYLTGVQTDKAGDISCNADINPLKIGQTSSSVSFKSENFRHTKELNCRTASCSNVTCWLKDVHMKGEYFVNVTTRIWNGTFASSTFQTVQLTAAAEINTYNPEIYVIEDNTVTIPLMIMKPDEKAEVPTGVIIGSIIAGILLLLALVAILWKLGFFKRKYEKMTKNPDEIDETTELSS
T1 sequence (P05556 21-798): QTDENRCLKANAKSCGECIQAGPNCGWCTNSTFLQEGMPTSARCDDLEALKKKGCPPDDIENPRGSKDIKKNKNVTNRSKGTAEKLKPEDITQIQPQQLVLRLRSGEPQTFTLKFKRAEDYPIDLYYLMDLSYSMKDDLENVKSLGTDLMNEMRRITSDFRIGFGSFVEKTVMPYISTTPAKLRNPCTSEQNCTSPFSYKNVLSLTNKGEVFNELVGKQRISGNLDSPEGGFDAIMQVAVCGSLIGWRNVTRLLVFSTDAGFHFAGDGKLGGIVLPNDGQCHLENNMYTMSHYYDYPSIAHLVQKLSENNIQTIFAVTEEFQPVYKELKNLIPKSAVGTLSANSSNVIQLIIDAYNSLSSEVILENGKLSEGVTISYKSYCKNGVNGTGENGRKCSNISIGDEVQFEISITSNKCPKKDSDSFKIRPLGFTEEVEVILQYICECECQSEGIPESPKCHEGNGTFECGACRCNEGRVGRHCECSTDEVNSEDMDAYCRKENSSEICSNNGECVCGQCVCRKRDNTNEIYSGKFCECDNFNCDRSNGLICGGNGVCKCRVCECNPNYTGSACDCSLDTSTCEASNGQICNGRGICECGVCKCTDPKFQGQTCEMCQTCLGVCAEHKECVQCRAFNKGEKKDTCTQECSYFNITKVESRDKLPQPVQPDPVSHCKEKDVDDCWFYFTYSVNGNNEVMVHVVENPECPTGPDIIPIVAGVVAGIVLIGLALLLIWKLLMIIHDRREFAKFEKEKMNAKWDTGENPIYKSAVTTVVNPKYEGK
Procedure: (§1) The ability of test compounds to block α2β1/collagen I and α1β1/collagen IV interactions were evaluated in cell adhesion assays. Collagen I and collagen IV were immobilized onto a 96-well Corning Easy Wash plate (Corning Cat. No. 25801). Human integrin-expressing cell lines (2×10^5/well) were labeled with a fluorescent compound, 2 μM BCECF-AM (Molecular Probes, Eugene, Oreg., Cat# B1150), and added with or without test compounds. After 30 minutes, the plates were washed, and bound cells quantified in a Cytofluor fluorescence plate reader. The assay buffer was TRIS-buffered saline (TBS: 24 mM TRIS, 137 mM NaCl, 2.7 mM KCl, 2 mM glucose, 0.1% BSA, pH 7.4), containing 1 mM MnCl2. The specificity of binding was controlled for using integrin specific neutralizing monoclonal antibodies. The antibodies were run at 10 μg/mL on each day of the assay and were as follows: anti-α4β1, mAb HP1/2 (Biogen); anti-α2β1, mAb 26G8 (Biogen); and α1β1, mAb AJH10 (Biogen).
(§2) The results presented in Table 3 summarize the integrin selectivity for PEGylated inhibitors. The selectivity of the PEGylated inhibitors for the four integrins indicated were tested in adhesion formats for α1β1 and α2β1, and by direct binding for α4β7. Serial dilutions of each compound were tested and IC50 values calculated from the concentration dependence of the inhibition curves. […]

α1β1 = α1β1 (Homo sapiens, UniProt P05556+P56199); assay: α1β1/collagen IV cell adhesion assay (K562 transfected with human α1-integrin chain); type: cell-based; conditions: adhesion format, 1 mM MnCl2
Chain of α1β1 (P56199 29-1179): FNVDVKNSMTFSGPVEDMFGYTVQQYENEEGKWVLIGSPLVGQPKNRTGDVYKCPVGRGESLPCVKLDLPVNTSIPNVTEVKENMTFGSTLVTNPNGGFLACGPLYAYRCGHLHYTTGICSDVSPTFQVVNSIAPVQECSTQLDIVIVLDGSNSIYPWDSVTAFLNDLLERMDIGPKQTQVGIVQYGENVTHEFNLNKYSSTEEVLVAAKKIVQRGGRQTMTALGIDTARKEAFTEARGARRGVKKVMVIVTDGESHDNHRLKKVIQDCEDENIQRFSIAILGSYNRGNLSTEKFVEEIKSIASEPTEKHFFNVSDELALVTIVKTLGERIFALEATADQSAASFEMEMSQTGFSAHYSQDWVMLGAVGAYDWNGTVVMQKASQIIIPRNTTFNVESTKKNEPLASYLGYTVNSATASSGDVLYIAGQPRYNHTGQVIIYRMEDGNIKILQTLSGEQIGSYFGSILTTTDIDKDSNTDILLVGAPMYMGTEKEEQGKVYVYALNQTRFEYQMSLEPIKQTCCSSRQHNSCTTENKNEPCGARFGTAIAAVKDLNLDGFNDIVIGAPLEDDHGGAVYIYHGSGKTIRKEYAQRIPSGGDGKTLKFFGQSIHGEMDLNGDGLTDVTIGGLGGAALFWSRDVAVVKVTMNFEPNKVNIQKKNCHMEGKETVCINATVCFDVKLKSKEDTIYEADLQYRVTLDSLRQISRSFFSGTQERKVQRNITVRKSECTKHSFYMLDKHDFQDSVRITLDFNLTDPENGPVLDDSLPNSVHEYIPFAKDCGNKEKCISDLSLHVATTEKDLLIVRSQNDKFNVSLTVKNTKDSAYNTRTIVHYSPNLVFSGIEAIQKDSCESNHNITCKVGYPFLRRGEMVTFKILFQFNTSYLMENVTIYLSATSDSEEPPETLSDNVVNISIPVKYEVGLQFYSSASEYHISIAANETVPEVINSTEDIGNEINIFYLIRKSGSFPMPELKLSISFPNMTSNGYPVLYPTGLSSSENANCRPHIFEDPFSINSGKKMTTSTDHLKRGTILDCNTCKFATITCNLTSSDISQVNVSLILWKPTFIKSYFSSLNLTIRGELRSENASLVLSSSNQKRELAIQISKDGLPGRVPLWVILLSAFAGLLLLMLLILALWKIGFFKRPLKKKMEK
Chain of α1β1 (P05556 21-798): as the sequence (P05556 21-798) above
Procedure: as §1, §2

pIC50 (α2β1)	pIC50 (α1β1)	SMILES	mean paralytic score reached (EAE)
		Cc1ccccc1NC(=O)Nc1ccc(CC(=O)N(C)[C@@H](CC(C)C)C(=O)NCC[C@H](NC(=O)[C@@H]2CCCN2S(=O)(=O)c2cc(Cl)cc(Cl)c2)C(=O)O)cc1 [Compound R, 2S-{[1-(3,5-dichloro-benzenesulfonyl)-pyrrolidine-2S-carbonyl]-amino}-4-[4-methyl-2S-(methyl-{2-[4-(3-o-tolyl-ureido)-phenyl]-acetyl}-amino)-pentanoylamino]-butyric acid]	3.0
5.30	< 5.00	Cc1ccccc1NC(=O)Nc1ccc(CC(=O)N(C)[C@@H](CC(C)C)C(=O)NCC[C@H](NC(=O)C2CCCN2S(=O)(=O)c2ccccc2)C(=O)O)cc1 (stereo partly drawn) [Compound B, 2S-[(1-benzenesulfonyl-pyrrolidine-2S-carbonyl)-amino]-4-[4-methyl-2S-(methyl-{2-[4-(3-o-tolyl-ureido)-phenyl]-acetyl}-amino)-pentanoylamino]-butyric acid]	

From patent publication US7196112B2, “Cell adhesion inhibitors” (Biogen Idec MA Inc., priority 2004, dated 2007)
